Measured values reported in ChEMBL document CHEMBL1201862, “PubChem BioAssay data set” (2004).
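Briefly, cells in 96-well plates were exposed to five compound concentrations for 48 h, and endpoints were estimated by linear interpolation. The concentration for 50% growth inhibition is given as GI50.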 Activity calls are given as the source filed them. No stated cut-off is given here; in the data, active = GI50 up to about 1.1 µM and inactive = higher.

Tests used:
Test in all cases: DTP human tumour cell line panel, 48 h
UACC-62 = system: UACC-62
A498 = system: A498
TK-10 = system: TK-10
SR = system: SR
T47D = system: T47D
OVCAR-8 = system: OVCAR-8
PC-3 = system: PC-3
HOP-92 = system: HOP-92
DU-145 = system: DU-145
SK-MEL-2 = system: SK-MEL-2
SF-539 = system: SF-539
SK-MEL-5 = system: SK-MEL-5
U-251 = system: U-251
786-0 = system: 786-0
KM12 = system: KM12
SW-620 = system: SW-620
MOLT-4 = system: MOLT-4
HCC 2998 = system: HCC 2998
NCI-H226 = system: NCI-H226
UACC-257 = system: UACC-257

SMILES | GI50 (UACC-62) | GI50 (A498) | GI50 (TK-10) | GI50 (SR) | GI50 (T47D) | GI50 (OVCAR-8) | GI50 (PC-3) | GI50 (HOP-92) | GI50 (DU-145) | GI50 (SK-MEL-2) | GI50 (SF-539) | GI50 (SK-MEL-5) | GI50 (U-251) | GI50 (786-0) | GI50 (KM12) | GI50 (SW-620) | GI50 (MOLT-4) | GI50 (HCC 2998) | GI50 (NCI-H226) | GI50 (UACC-257)
C=C(Br)C(Cl)(CBr)CCC(Br)C(C)(C)Cl (centres undefined) | > 10 µM (inactive) | > 10 µM (inactive) | > 10 µM (inactive) | > 10 µM (inactive) | > 10 µM (inactive) | > 10 µM (inactive) | > 10 µM (inactive) | > 10 µM (inactive) | > 10 µM (inactive) | > 10 µM (inactive) | > 10 µM (inactive) | > 10 µM (inactive) | > 10 µM (inactive) | 5.36 µM (inactive) | > 10 µM (inactive) | > 10 µM (inactive) | > 10 µM (inactive) | > 10 µM (inactive) | > 10 µM (inactive) | 
CC1C2CC(CC23OCC(CCl)O3)C1(C)C (centres undefined) | > 100 µM (inactive) | > 100 µM (inactive) | > 100 µM (inactive) | > 100 µM (inactive) | > 100 µM (inactive) | > 100 µM (inactive) | > 100 µM (inactive) | > 100 µM (inactive) | > 100 µM (inactive) |  | > 100 µM (inactive) | > 100 µM (inactive) |  | > 100 µM (inactive) | > 100 µM (inactive) | > 100 µM (inactive) | > 100 µM (inactive) | > 100 µM (inactive) | > 100 µM (inactive) | > 100 µM (inactive)
O=C1/C(=C/c2ccccc2O)N=C(c2ccccc2)N1C1Nc2cc3c(cc2S1)NC(N1C(=O)/C(=C/c2ccccc2O)N=C1c1ccccc1)S3 (centres undefined) |  | 20 µM (inactive) | 25.4 µM (inactive) | 18.3 µM (inactive) | 8.05 µM (inactive) | 30.7 µM (inactive) | 34.4 µM (inactive) | 0.489 µM (active) | 42.8 µM (inactive) | 35.2 µM (inactive) | 36.1 µM (inactive) | 29.7 µM (inactive) | 29.6 µM (inactive) | 25.4 µM (inactive) | 41.3 µM (inactive) | 36.3 µM (inactive) | 35.5 µM (inactive) | 33.6 µM (inactive) | > 100 µM (inactive) | 66.8 µM (inactive)
CCN(CC)CCn1c2cc3c(cc2c(=O)c2cccnc21)OCCO3 | > 10 µM (inactive) | 0.0912 µM (active) | > 10 µM (inactive) | 4.44 µM (inactive) | > 10 µM (inactive) | > 10 µM (inactive) | > 10 µM (inactive) | > 10 µM (inactive) | > 10 µM (inactive) |  | > 10 µM (inactive) | > 10 µM (inactive) | > 10 µM (inactive) | > 10 µM (inactive) | > 10 µM (inactive) | 5.28 µM (inactive) | 3.78 µM (inactive) | 6.4 µM (inactive) |  | > 10 µM (inactive)
CC1CN=C(Nc2ccc(S(N)(=O)=O)cc2)S1 (centres undefined) |  | > 100 µM (inactive) | > 100 µM (inactive) | > 100 µM (inactive) | 60.1 µM (inactive) | > 100 µM (inactive) | > 10 µM (inactive) | > 100 µM (inactive) | > 100 µM (inactive) | > 100 µM (inactive) | > 100 µM (inactive) | > 100 µM (inactive) | > 100 µM (inactive) | > 100 µM (inactive) | > 100 µM (inactive) | > 100 µM (inactive) | > 100 µM (inactive) | > 100 µM (inactive) |  | > 100 µM (inactive)
Cc1nc2c3c(ncn2n1)Oc1c(c(-c2ccccc2)nn1-c1ccccc1)C3c1ccc(Cl)cc1 (centres undefined) | 53.6 µM (inactive) | > 100 µM (inactive) | 39.4 µM (inactive) | 45.1 µM (inactive) | > 100 µM (inactive) | 56.9 µM (inactive) | > 100 µM (inactive) | 98.4 µM (inactive) | > 100 µM (inactive) | > 100 µM (inactive) | 22.3 µM (inactive) |  | 53.6 µM (inactive) | 39 µM (inactive) | > 100 µM (inactive) | > 100 µM (inactive) | > 100 µM (inactive) | > 100 µM (inactive) | > 100 µM (inactive) | > 100 µM (inactive)
CC(C)C(CC(=O)OCC(CO)OC(=O)CC(C(C)C)C(C)C)C(C)C (centres undefined) | 15.8 µM (inactive) | 15.3 µM (inactive) | 13.3 µM (inactive) | 22.1 µM (inactive) | 16.6 µM (inactive) |  | 14.4 µM (inactive) | 2.75 µM (inactive) | 15.4 µM (inactive) | 18.2 µM (inactive) |  | 11.9 µM (inactive) | 13.1 µM (inactive) | 12.4 µM (inactive) | 15.7 µM (inactive) | 13.6 µM (inactive) | 10.1 µM (inactive) | 15.8 µM (inactive) | 16.1 µM (inactive) | 17.1 µM (inactive)
